Reference: article PMC4010398, “A Phase I Clinical Trial of Systemically Delivered NEMO Binding Domain Peptide in Dogs with Spontaneous Activated B-Cell like Diffuse Large B-Cell Lymphoma” (PLoS ONE, 2014)
Entries after “also recorded” stand apart in the source; their conditions may differ.

Tests used:
Ki67 = Ki67 immunohistochemistry of malignant lymph node biopsies; type: in vivo, dog; conditions: 24 hours post peptide vs pre; 10 high power fields
Description: (§1) Immunohistochemical analysis was performed on 5 micron sections of formalin fixed paraffin embedded lymph node tissue from dogs with spontaneous DLBCL using a DAKO automatic universal staining system. Sections were heated in a 60°C oven for 1 hour, depararaffinized in PRO PAR clearant and rehydrated in progressively decreasing grades of ethanol. Antigen retrieval was performed by boiling sections in sodium citrate buffer, pH ∼9.0 for 15 minutes. Endogenous peroxidase was blocked with 3% hydrogen peroxide. For Ki67 staining, a 1∶50 dilution of a monoclonal mouse anti-human antibody (Clone MIB-1, DAKO) was used and immunodetection was performed using a biotinylated goat anti-rabbit/anti-mouse immunoglobulin and SA-HRP (LSAB2 kit, DAKO, Carpinteria, CA). For IRF-4 staining, a 1∶200 dilution of a polyclonal mouse anti human antibody (DAKO, M7259) was used and immunodetection was performed using a peroxidase polymer conjugated anti-mouse secondary antibody system (ImmPRESS Anti-mouse Ig peroxidase polymer detection kit). In all cases, antibody binding was detected using 3,3′-diaminobenzidine solution and tissues were counterstained with hematoxylin. Slides were viewed using a Nikon E600 infinity corrected upright microscope. […] Apoptotic cells were detected using the cell death detection kit (Roche, Indianapolis, IA) following the manufacturer's instructions. […]

malignant lymph nodes [1] = assay: TUNEL staining of malignant lymph node biopsies; type: in vivo, dog; conditions: 24 hours post peptide vs pre; tissue available from 9 dogs
Description: as §1

[2] = Hematological and biochemical parameters before and one week after treatment; type: in vivo, dog
Description: In this phase I dose escalation clinical trial, both treatment-naïve and relapsed dogs were enrolled. NBD peptide was administered according to a standard 3+3 trial design. […] Peptide was reconstituted to 50 mM in sterile DMSO and diluted in 20 mls of lactated Ringers solution immediately prior to intravenous administration at a constant rate of 20 ml/hr. […] Following the post-treatment biopsy, dogs received induction or rescue chemotherapy as determined by their primary attending veterinary oncologist and a short course of prophylactic antibiotics (amoxicillin). All dogs received a follow-up full clinical examination, CBC, CS and urinalysis one week post NBD peptide.

[3] = test system: dogs with spontaneous ABC-like DLBCL; assay: Phase I 3+3 dose escalation: adverse events and toxicity (VCOG-CTCAE); type: in vivo, dog
Description: The clinical trial protocol was fully approved by the University of Pennsylvania's Institutional Animal Care and Use Committee (Privately Owned Animal Protocol number: 803765). Only dogs with full written informed owner consent were eligible for enrollment. […] The histopathological diagnosis of DLBCL and cytological confirmation of large B cell lymphoma were made by board certified veterinary pathologists (M.G., and A.D., see acknowledgements) and by a board certified clinical pathologist (R.P.) respectively. Only dogs with DLBCL and constitutive NF-κB activity within their malignant lymph nodes as determined by the presence of phospho-IKK, phospho-IκBα and phospho-p65 were eligible to receive NBD peptide.
(§2) Tumor burden was calculated by measuring three dimensions (length, width and height) for each malignant lymph node. The mass of each node was calculated as previously described and the sum of measured lymph node mass was considered as total tumor mass. Response to NBD peptide was evaluated according to the Veterinary Cooperative Oncology Group criteria for assessment of response in peripheral nodal lymphoma, adapted for use in dogs from the published RECIST criteria. The Veterinary Cooperative Oncology Group Common Terminology for Adverse Events, version 1.0 was used to grade adverse events.

Cyclin D1 = assay: qRT-PCR of Cyclin D1 in malignant lymph node biopsies; type: in vivo, dog; conditions: 24 hour post-peptide biopsy normalized to pre-treatment; β-actin control, triplicate
Description: (§3) Lymph node biopsies were immediately placed in RNAlater (Ambion, Austin, TX) and stored at –80°C prior to RNA extraction. Total RNA extraction was performed using the RNeasy Mini Kit (Qiagen, Valencia, CA). Reverse transcription was performed using random hexamers and Superscript II reverse transcriptase (Invitrogen Corp., Carlsbad. CA, USA) according to the manufacturer's instructions. Primer sequences for canine A1, A20, Bcl-XL, c-FLIP, Cyclin D1, Bcl-2, XIAP and β-actin have been previously described, [35]. Primers were synthesized by Invitrogen Corp. Real-time PCR assays were performed using SYBR Green (Fermentas, Glen Burnie, Maryland). Samples were run in triplicate using standard conditions on an ABI 7500 sequence detector (Applied Biosystems, Carlsbad, CA) and data were analyzed using β-actin as an endogenous control. Dissociation curves were performed after each experiment to confirm the specificity of product amplification. Statistical analysis was performed using a two-tailed Student's ‘t’ test where statistical significance = p<0.05.

[4] = Plasma pharmacokinetics after intravenous infusion (mass spectrometry)
Description: In this phase I dose escalation clinical trial, both treatment-naïve and relapsed dogs were enrolled. NBD peptide was administered according to a standard 3+3 trial design. The dose endpoint was the dose at which canonical NF-κB signaling was inhibited within malignant lymph nodes. Peptide was reconstituted to 50 mM in sterile DMSO and diluted in 20 mls of lactated Ringers solution immediately prior to intravenous administration at a constant rate of 20 ml/hr. Twenty-four hours post NBD peptide administration, excisional or Tru-cut biopsies of a peripheral malignant lymph node were taken for Western blot, qRT-PCR and histopathological analysis.
EDTA anti-coagulated blood samples were taken at 0, 30, 60, 90, 120, 240, 360 mins and 24 hours post infusion. Plasma was separated by centrifugation and stored at −80°C prior to pharmacokinetic analysis. Mass spectrometer analysis of NBD peptide in plasma samples was performed by Frontage Laboratories, Exton, PA and pharmacokinetic (PK) parameters were determined using WinNonlin v5.2 software. The lower limit of quantification (LLOQ) was set to 10 ng/ml however, in some instances the LLOQ was changed to 20 ng/ml because of potential interference in the samples.

malignant node = conditions: local, intranodal administration; cited from earlier work
Description: (§4) Pet dogs that develop Non-Hodgkins Lymphoma (NHL) are recognized as a clinically relevant, spontaneous large animal model of the human disease, [27]–[31]. […] Furthermore, tissue microarrays from lymphomatous canine tissue confirmed the presence of constitutive NF-κB activity and pharmacological inhibition of IKK leads to in ...

[5] = test system: primary malignant canine B cells; conditions: in vitro, cited from earlier work
Description: as §4

rats, mice and piglets = conditions: doses ranging from 0.75 mg/kg to 20 mg/kg; cited from earlier work
Description: In this study, as a consequence of dru ...

[6] = test system: NF-κB target genes (A1, c-FLIP, XIAP, Bcl-XL, Bcl-2 and A20); assay: qRT-PCR of pro-survival NF-κB target genes in malignant lymph nodes; type: in vivo, dog
Description: as §3

[7] = test system: constitutive canonical NF-κB signaling (phospho-IKKα/β:IKKβ); assay: Immunoblot and densitometry of phospho-IKK in malignant lymph node biopsies, pre and 24 h post peptide; type: in vivo, dog; conditions: malignant lymph node biopsy 24 hours after single 1 h i.v. infusion, 0.5-2 mg/kg, vs pre-treatment; paired samples from ten of eleven dogs
Description: Lymph node biopsy samples were mechanically dissociated in RPMI and red blood cells were removed using ACK lysis buffer (Gibco) according to manufacturer's instructions. Cells were lysed in 50 mM Tris-HCL containing 1% NP-40, 150 mM NaCl, 2.5 mM EDTA, 5% glycerol, a 1∶50 dilution of Protease Inhibitor Cocktail and 1∶50 dilutions of Phosphatase Inhibitor Cocktails 2 and 3 (Sigma-Aldrich, Saint Louis, MO). Samples were centrifuged and protein concentrations were determined by micro BCA assay (Thermo Scientific, Rockford, IL). Proteins from whole cell extracts were separated by SDS-PAGE (10%) followed by transfer to PVDF membrane. Membranes were probed with polyclonal rabbit anti-human antibodies against phospho-IKKα/β (16A6), IKKβ (L570), phospho-IκBα (14D4), mouse anti-human IκBα (L35A5) and β-actin (4967) (Cell Signaling, Danvers, MA). An HRP-conjugated donkey anti-rabbit or anti-mouse IgG was used as the secondary detection antibody (Amersham, Piscataway, NJ). Blots were developed using ECL Plus (Amersham, Piscataway, NJ). Densitometry was performed using ImageJ software and integrated density values for each band were obtained using the Analyze Particles function.

[8] = test system: dogs with spontaneous ABC-like DLBCL; assay: Clinical response and survival after NBD peptide plus chemotherapy; type: in vivo, dog
Description: as §2

malignant lymph nodes [9] = assay: Measureable tumor mass before and 24 h after peptide; type: in vivo, dog; conditions: 24 hours after NBD peptide; measurements available for 10 treated dogs
Description: as §2

[10] = one week after NBD peptide plus induction or rescue chemotherapy

In the case of “NEMO Binding Domain (NBD) peptide [NBD peptide]”, the “dogs with a statistically significant reduction in the number of Ki67+ cells” value (Ki67) is reported as “Four”, the “dogs with a trend towards an increase in apoptosis (TUNEL)” value (malignant lymph nodes [1]) is reported as “Five” and the “dogs with significant but asymptomatic increases in liver values (ALT, ALKP, AST and GGT) one week later” value ([2]; Group 2, 1 mg/kg, dog also received L'asparaginase 24 hrs after peptide, values returned to baseline two weeks later) is reported as “One”. For the same substance, the “dogs with elevated ALKP prior to peptide that showed further increases in ALKP post treatment” value ([2]; all previously treated for relapsed lymphoma, one week after NBD peptide plus chemotherapy) was 4/11, the “dogs with an increase in platelet count” value [2, 10] was 8/11 and the “dogs with mild decreases in lymphocyte counts” value [2, 10] was 9/11. The “dogs with mild decreases in hematocrit” value ([2]; one week after NBD peptide plus induction or rescue chemotherapy, most values within the normal range) was 9/11, the “acute or chronic toxicities at any dose evaluated” value ([3]; 0.5-2.0 mg/kg single i.v. dose, clinical, hematological and biochemical parameters) was “no significant acute or chronic toxicities” and the “safety of intravenous administration” value ([3]; <2 mg/kg i.v.) was “safe”. The “dogs that became drowsy and developed moderate tachycardia and hypertension during infusion” value ([3]; Group 1, 0.5 mg/kg i.v., three dogs, no premedication, mild, transient, resolved when infusion was discontinued) was “two”, the “additional dogs with transient hypertension” value ([3]; Group 2, 1 mg/kg i.v., premedicated with ondansetron and diphenhydramine) was “one” and the “maximum tolerated dose of NBD peptide in dogs” value ([3]; doses 0.5-2.0 mg/kg i.v.) was “not reached”. The “dogs with a decrease in the expression of Cyclin D1” value (Cyclin D1) was “Eight out of eleven”, the “plasma concentrations of NBD peptide at the doses studied” value ([4]; 0.5-2.0 mg/kg i.v.) was “very low” and the “NBD peptide in plasma after 60 mins” value ([4]; any dog, sampling up to 24 hours post infusion, LLOQ 10 or 20 ng/ml) was “not detected; also recorded: undetectable”. For the same substance, the “effect on tumor burden” value (malignant node) was “decreases tumor burden”, the “effect on cell survival” value ([5]; NBD peptide fused to AntP) was “rapid apoptosis” and the “effect on phosphorylation of IKK and IκBα” value ([5]; NBD peptide fused to the cell penetrating Antennapedia peptide (AntP)) was “inhibits phosphorylation”. For the same substance, the “tolerability of systemic administration” value (rats, mice and piglets) was “well tolerated”, the “inhibition of NF-κB target genes in the one dog that received 2 mg/kg (dog 11)” value ([6]; 2 mg/kg i.v., 24 hours after peptide, compared with the other dogs) was “most significant inhibition” and the “dogs in which the expression of 3 or more target genes was reduced” value ([6]; 24 hours after NBD peptide, six genes evaluated) was 6 out of 11. For the same substance, the “dogs showing reductions in the phosphorylation status of IKK (pIKK:IKK)” value [7] was 6/10 and Six out of ten, the “dogs that achieved clinical remission (CR)” value ([8]; NBD peptide plus chemotherapy, eleven dogs, including 5 dogs treated at first relapse) was “Seven” and the “dogs that survived greater than 16 months” value ([8]; after peptide administration and chemotherapy) was “three”. The “dogs with greater than 20% reduction in measureable tumor mass” value (malignant lymph nodes [9]) was “Five out of 10”.
